According to patent US11192921B2 (priority 2017, dated 2021):
Values joined by “and” are separate entries in the source; they are usually repeats but may differ in a detail not shown here. Identical values can stand only once. Like-named read-outs stand apart in the source and are kept apart here. Marks after values point to notes of the source that are not given here. No end group written: not given here.

Experiments:
Female Kunming mice [1] = tested on: Female Kunming mice
Female Kunming mice [2] = tested on: Female Kunming mice; remark: listed apart in the source
Kunming mice [3] = conditions: mouse, in vivo
male BALB/c mice [4] = test: cancer-induced pain (CIP) model, gross behavior; format: in vivo; conditions: 14th day after inoculation
Method: (§1) BALB/c mice were taken, and the right sciatic nerve was exposed; ascites containing 5×10^4 Meth A sarcoma cells were injected into the proximal nerve near the sciatic nerve trochanter far from the tendon branch of the posterior biceps, the wound was closed, and the same volume of normal saline was injected into the left side by performing a sham operation.
On the 4th, 7th, 10th and 14th days after inoculation, spontaneous pain and foot drop and the like occurred before the occurrence of thermal sensitivity and mechanical pain sensitivity behaviors, […]

SD rats = test: pain threshold of trigeminal nerve (trigeminal neuralgia model); format: in vivo; conditions: for highest pain threshold on the operative side / pain threshold on the opposite side: 3 h after injection; for Pain threshold: intraperitoneal
Female Kunming mice [5] = format: in vivo
male BALB/c mice [6] = test: cancer-induced pain (CIP) model, thermosensitive test; format: in vivo; conditions: heat radiation stimulation
Method: Influence of Analgesic Polypeptides on Neuralgia in a Cancer-Induced Pain (CIP) Model
A number of male BALB/c mice each weighing 25-30 g were used.
Von Fery monofilament; a microsyringe, 5 mg/mL solutions of polypeptides I, II and II I; normal saline.
as §1
1.3.1 Thermosensitive Test
On the 4th, 7th, 10th and 14th days after inoculation, the latency of foot lifting caused by heat radiation stimulation to animals was observed, and the heat radiation intensity was adjusted to cause the latency of foot lifting of normal mice to be (10±2) s.
All data was expressed as M±SD and subjected to one-way ANOVA.

Kunming mice [7] = format: in vivo
Female Kunming mice [8] = tested on: Female Kunming mice; remark: listed apart in the source
[9] = 50 μg/kg, injected subcutaneously
[10] = 100 μg/kg, injected subcutaneously

Sequence: GSCSTPPSAVLYC (cysteine pairing not given here) [Polypeptide II]
- Duration of the immobility of mice in tail suspension tests (Female Kunming mice [1]; 1 h): 19.47 ± 1.32^ s
- Duration of the immobility of mice in tail suspension tests (Female Kunming mice [1]; 24 h): 19.03 ± 2.48 s
- Duration of the immobility of mice in tail suspension tests (Female Kunming mice [1]; Time 0): 20.98 ± 1.28 s
- data of tail suspension test compared with the normal saline group (Female Kunming mice [1]; mouse, in vivo, ip): no significant difference
- toxic side effects compared with the conotoxin (tail suspension) (Female Kunming mice [1]; mouse, in vivo, ip): lower toxic side effects
- Movement duration of mice in forced swimming tests (Female Kunming mice [2]; 1 h): 19.47 ± 1.32^ s
- Movement duration of mice in forced swimming tests (Female Kunming mice [2]; 24 h): 19.03 ± 2.48 s
- Movement duration of mice in forced swimming tests (Female Kunming mice [2]; Time 0): 20.98 ± 1.28 s
- toxic side effects compared with the conotoxin (forced swimming) (Female Kunming mice [2]; mouse, in vivo, ip): lower toxic side effects
- analgesic effects in formalin-induced pain experiments (Kunming mice [3]): good analgesic effects
- cumulative foot licking time, Phase I (Kunming mice [3]): 48.20 ± 11.31*^
- cumulative foot licking time, Phase II (Kunming mice [3]): 40.53 ± 14.32
- left foot lifting behavior (male BALB/c mice [4]): obviously observed
- animal reaction thresholds (SD rats; 50 μg/kg and 100 μg/kg, injected subcutaneously): significantly increased
- time the pain thresholds lasted (SD rats; [9]): 1 h
- highest pain threshold on the operative side (SD rats; [9]): 2.3 ± 0.5 g
- pain threshold on the opposite side (SD rats; [9]): 1.2 ± 0.2 g
- time the effect on the operative side lasted (SD rats; [10]): about 8 h
- highest pain threshold on the operative side (SD rats; [10]): 7.4 ± 0.9 g
- pain threshold on the opposite side (SD rats; [10]): 3.2 ± 1.3 g
- pain threshold change (SD rats; 300 μg/kg, subcutaneously): not significantly increased
- Pain threshold (SD rats; Dose 50 (μg/kg), 0 h): 25.56 ± 0.65 s
- Pain threshold (SD rats; Dose 50 (μg/kg), 1 h): 25.23 ± 0.44 s
- Pain threshold (SD rats; Dose 50 (μg/kg), 2 h): 26.62 ± 0.56 s
- Pain threshold (SD rats; Dose 50 (μg/kg), 3 h): 26.46 ± 0.62 s
- Pain threshold (SD rats; Dose 50 (μg/kg), 4 h): 27.15 ± 0.56 s
- Pain threshold (SD rats; Dose 50 (μg/kg), 5 h): 26.62 ± 0.13 s
- Pain threshold (SD rats; Dose 100 (μg/kg), 0 h): 25.87 ± 0.23 s
- Pain threshold (SD rats; Dose 100 (μg/kg), 1 h): 26.12 ± 0.62 s
- Pain threshold (SD rats; Dose 100 (μg/kg), 2 h): 27.16 ± 0.32 s
- Pain threshold (SD rats; Dose 100 (μg/kg), 3 h): 27.65 ± 0.32 s
- Pain threshold (SD rats; Dose 100 (μg/kg), 4 h): 26.23 ± 0.62 s
- Pain threshold (SD rats; Dose 100 (μg/kg), 5 h): 25.13 ± 0.32 s
- Pain threshold (SD rats; Dose 300 (μg/kg), 0 h): 26.41 ± 0.66 s
- Pain threshold (SD rats; Dose 300 (μg/kg), 1 h): 30.12 ± 0.56 s
- Pain threshold (SD rats; Dose 300 (μg/kg), 2 h): 30.61 ± 0.62 s
- Pain threshold (SD rats; Dose 300 (μg/kg), 3 h): 29.52 ± 0.95 s
- Pain threshold (SD rats; Dose 300 (μg/kg), 4 h): 28.62 ± 0.61 s
- Pain threshold (SD rats; Dose 300 (μg/kg), 5 h): 27.92 ± 0.61 s
- Pain threshold (Female Kunming mice [5]; 0 min): 27.43 ± 0.54^∧ s
- Pain threshold (Female Kunming mice [5]; mouse, in vivo, ip): 42.54 ± 0.24^∧ s and 22.33 ± 0.36 s and 27.45 ± 0.52 s and 31.34 ± 0.45*^∧ s and 25.43 ± 0.54^∧ s and 26.24 ± 0.42 s
- heat thresholds of mice compared with the normal saline negative control group (Female Kunming mice [5]; mouse, in vivo, ip): effectively increase the heat thresholds of mice
- increase of the pain threshold compared with the normal saline group and the conotoxin group (Female Kunming mice [5]; mouse, in vivo, ip): significantly higher
- Latency of foot lifting before administration (male BALB/c mice [6]; before administration): 10.12 ± 1.64
- Latency (D) of foot lifting after administration (male BALB/c mice [6]; day 4): 9.87 ± 0.78
- Latency (D) of foot lifting after administration (male BALB/c mice [6]; day 7): 8.75 ± 0.89
- Latency (D) of foot lifting after administration (male BALB/c mice [6]; day 10): 8.31 ± 0.92
- Latency (D) of foot lifting after administration (male BALB/c mice [6]; day 14): 6.56 ± 0.56
- Pain threshold (tail flick) (Kunming mice [7]; 0 min): 2.43 ± 0.21^∧ s
- Pain threshold (tail flick) (Kunming mice [7]; 15 min): 2.52 ± 0.24 s
- Pain threshold (tail flick) (Kunming mice [7]; 30 min): 2.31 ± 0.36 s
- Pain threshold (tail flick) (Kunming mice [7]; 45 min): 2.45 ± 0.12 s
- Pain threshold (tail flick) (Kunming mice [7]; 60 min): 2.12 ± 0.41 s
- Pain threshold (tail flick) (Kunming mice [7]; 75 min): 2.23 ± 0.14^∧ s
- Pain threshold (tail flick) (Kunming mice [7]; 90 min): 2.24 ± 0.12 s
- Movement distances of mice in open field tests (Female Kunming mice [8]; 1 h): 19.47 ± 1.32^
- Movement distances of mice in the center area in open field tests (Female Kunming mice [8]; 1 h): 19.47 ± 1.32^
- Movement distances of mice in the peripheral area in open field tests (Female Kunming mice [8]; 1 h): 19.47 ± 1.32^
- Number of entrances to the center area in open field tests (Female Kunming mice [8]; 1 h): 19.47 ± 1.32^
- Number of entrances to the peripheral area in open field tests (Female Kunming mice [8]; 1 h): 19.47 ± 1.32^
- Residence time in the center area in open field tests (Female Kunming mice [8]; 1 h): 19.47 ± 1.32^ s
- Residence time in the peripheral area in open field tests (Female Kunming mice [8]; 1 h): 19.47 ± 1.32^ s
- Movement distances of mice in open field tests (Female Kunming mice [8]; 24 h): 19.03 ± 2.48 m
- Movement distances of mice in the center area in open field tests (Female Kunming mice [8]; 24 h): 19.03 ± 2.48 m
- Movement distances of mice in the peripheral area in open field tests (Female Kunming mice [8]; 24 h): 19.03 ± 2.48 m
- Number of entrances to the center area in open field tests (Female Kunming mice [8]; 24 h): 19.03 ± 2.48
- Number of entrances to the peripheral area in open field tests (Female Kunming mice [8]; 24 h): 19.03 ± 2.48
- Residence time in the center area in open field tests (Female Kunming mice [8]; 24 h): 19.03 ± 2.48 s
- Residence time in the peripheral area in open field tests (Female Kunming mice [8]; 24 h): 19.03 ± 2.48 s
- Movement distances of mice in open field tests (Female Kunming mice [8]; Time 0): 20.98 ± 1.28 m
- Movement distances of mice in the center area in open field tests (Female Kunming mice [8]; Time 0): 20.98 ±1.28 m
- Movement distances of mice in the peripheral area in open field tests (Female Kunming mice [8]; Time 0): 20.98 ± 1.28 m
- Number of entrances to the center area in open field tests (Female Kunming mice [8]; Time 0): 20.98 ± 1.28
- Number of entrances to the peripheral area in open field tests (Female Kunming mice [8]; Time 0): 20.98 ± 1.28
- Residence time in the center area in open field tests (Female Kunming mice [8]; Time 0): 20.98 ± 1.28 s
- Residence time in the peripheral area in open field tests (Female Kunming mice [8]; Time 0): 20.98 ± 1.28 s
- side effects compared with conotoxin (open field) (Female Kunming mice [8]; mouse, in vivo, ip): lower side effects
- various indexes in open field experiments compared with the normal saline group (Female Kunming mice [8]; mouse, in vivo, ip): no significant difference
